ChEMBL document CHEMBL1201862, “PubChem BioAssay data set” (2004)
The source made the active and inactive calls.

Experiments:
Format in all cases: functional
[1] = target: T1, Sentrin-specific protease 7 (Homo sapiens, UniProt Q9BQF6); experiment: inhibition of human SENP7 cleavage activity – biochemical, luminescence, SAR follow-up (AID 504497)
T1 sequence (Q9BQF6 whole entry): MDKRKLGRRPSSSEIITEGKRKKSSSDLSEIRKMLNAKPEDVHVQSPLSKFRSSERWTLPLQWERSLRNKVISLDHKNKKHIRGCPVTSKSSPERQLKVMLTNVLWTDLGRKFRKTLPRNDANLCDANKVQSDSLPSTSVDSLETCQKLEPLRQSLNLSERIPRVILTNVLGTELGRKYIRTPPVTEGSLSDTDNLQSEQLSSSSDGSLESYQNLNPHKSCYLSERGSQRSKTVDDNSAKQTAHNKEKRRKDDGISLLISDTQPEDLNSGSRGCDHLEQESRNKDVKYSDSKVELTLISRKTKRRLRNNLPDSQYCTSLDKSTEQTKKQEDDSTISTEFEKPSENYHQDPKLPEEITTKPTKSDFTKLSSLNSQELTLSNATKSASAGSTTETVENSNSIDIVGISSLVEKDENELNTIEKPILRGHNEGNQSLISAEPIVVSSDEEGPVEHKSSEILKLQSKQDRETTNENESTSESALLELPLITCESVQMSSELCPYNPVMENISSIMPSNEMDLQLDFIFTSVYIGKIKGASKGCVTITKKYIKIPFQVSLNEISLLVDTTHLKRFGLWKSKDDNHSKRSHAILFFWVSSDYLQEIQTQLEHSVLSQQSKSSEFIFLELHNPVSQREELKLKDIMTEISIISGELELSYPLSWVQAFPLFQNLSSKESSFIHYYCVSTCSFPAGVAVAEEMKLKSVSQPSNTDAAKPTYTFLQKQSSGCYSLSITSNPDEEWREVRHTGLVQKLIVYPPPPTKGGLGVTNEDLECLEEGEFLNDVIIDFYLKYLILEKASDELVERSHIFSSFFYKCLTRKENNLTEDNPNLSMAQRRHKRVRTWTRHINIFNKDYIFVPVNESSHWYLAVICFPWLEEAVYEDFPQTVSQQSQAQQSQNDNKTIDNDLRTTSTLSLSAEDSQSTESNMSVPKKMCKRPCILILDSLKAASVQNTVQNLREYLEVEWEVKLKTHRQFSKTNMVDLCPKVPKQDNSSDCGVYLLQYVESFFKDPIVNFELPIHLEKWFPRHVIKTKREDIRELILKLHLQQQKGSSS

[2] = target: T2, Serine/threonine-protein kinase D3 (Homo sapiens, UniProt O94806);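 note: determined within a kinase panel screen, with PRKCN as the panel member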
T2 sequence (O94806 whole entry): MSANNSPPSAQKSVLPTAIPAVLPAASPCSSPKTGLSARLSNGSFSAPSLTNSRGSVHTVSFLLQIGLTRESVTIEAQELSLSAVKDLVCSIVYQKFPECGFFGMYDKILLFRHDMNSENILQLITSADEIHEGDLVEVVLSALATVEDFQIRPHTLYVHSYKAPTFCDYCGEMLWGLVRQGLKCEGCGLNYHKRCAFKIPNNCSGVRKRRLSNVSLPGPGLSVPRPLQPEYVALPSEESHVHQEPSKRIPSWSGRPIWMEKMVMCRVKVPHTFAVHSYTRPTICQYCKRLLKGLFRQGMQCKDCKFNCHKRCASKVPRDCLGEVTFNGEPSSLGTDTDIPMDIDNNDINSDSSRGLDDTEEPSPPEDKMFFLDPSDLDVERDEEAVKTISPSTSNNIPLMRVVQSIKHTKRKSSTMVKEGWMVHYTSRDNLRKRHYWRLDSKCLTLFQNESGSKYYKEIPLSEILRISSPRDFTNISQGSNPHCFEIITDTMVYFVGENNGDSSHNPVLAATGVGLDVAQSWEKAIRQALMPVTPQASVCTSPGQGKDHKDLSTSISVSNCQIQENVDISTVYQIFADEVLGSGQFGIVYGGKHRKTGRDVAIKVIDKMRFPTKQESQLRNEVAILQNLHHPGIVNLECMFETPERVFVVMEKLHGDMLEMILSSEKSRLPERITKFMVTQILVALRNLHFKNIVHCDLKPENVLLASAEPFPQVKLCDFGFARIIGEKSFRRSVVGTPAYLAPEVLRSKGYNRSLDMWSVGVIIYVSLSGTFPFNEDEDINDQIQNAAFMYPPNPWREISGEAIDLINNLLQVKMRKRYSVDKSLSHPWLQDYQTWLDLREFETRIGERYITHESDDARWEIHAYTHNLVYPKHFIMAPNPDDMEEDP

[3] = target: Death-associated protein kinase 3 (Homo sapiens, UniProt O43293);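 note: measured as one member of a kinome-wide profiling panel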
[4] = target: Cyclin-dependent kinase 19 (Homo sapiens, UniProt Q9BWU1); experiment: Navigating the Kinome. Panel member name: CDC2L6
[5] = target: T3, Inhibitor of nuclear factor kappa-B kinase subunit epsilon (Homo sapiens, UniProt Q14164); experiment: Navigating the Kinome. Panel member name: IKBKE
T3 sequence (Q14164 whole entry): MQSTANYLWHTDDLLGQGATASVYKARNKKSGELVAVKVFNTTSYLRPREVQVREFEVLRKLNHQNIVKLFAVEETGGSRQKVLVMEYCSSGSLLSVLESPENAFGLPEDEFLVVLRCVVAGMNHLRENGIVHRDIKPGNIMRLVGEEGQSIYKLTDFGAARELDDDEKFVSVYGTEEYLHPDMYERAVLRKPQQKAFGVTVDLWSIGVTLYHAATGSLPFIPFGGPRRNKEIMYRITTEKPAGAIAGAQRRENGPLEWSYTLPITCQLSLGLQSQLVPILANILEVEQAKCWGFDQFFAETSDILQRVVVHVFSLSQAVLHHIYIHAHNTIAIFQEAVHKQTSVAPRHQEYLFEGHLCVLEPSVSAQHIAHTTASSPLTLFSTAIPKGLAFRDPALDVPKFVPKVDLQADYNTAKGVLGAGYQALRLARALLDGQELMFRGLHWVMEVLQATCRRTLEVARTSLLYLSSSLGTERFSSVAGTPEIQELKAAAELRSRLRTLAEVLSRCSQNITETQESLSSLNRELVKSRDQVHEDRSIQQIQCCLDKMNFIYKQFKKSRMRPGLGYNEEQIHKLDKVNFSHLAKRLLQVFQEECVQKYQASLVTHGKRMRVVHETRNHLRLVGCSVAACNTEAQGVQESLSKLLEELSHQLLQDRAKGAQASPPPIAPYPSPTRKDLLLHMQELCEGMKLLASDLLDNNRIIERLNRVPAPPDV

[6] = target: Tyrosine-protein kinase Lck (Homo sapiens, UniProt P06239);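 note: lck was assayed as one member of a kinase panel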
[7] = target: Dual specificity protein kinase CLK4 (Homo sapiens, UniProt Q9HAZ1)
Activin receptor type-1 = Activin receptor type-1 (Homo sapiens, UniProt Q04771); experiment: Navigating the Kinome. Panel member name: ACVR1
[8] = target: ALK tyrosine kinase receptor (Homo sapiens, UniProt Q9UM73);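 note: ALK tested as one member of a kinase panel screen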
[9] = target: Protein kinase C theta type (Homo sapiens, UniProt Q04759); experiment: Navigating the Kinome. Panel member name: PRKCQ
Sequence of Protein kinase C theta type (Q04759 whole entry): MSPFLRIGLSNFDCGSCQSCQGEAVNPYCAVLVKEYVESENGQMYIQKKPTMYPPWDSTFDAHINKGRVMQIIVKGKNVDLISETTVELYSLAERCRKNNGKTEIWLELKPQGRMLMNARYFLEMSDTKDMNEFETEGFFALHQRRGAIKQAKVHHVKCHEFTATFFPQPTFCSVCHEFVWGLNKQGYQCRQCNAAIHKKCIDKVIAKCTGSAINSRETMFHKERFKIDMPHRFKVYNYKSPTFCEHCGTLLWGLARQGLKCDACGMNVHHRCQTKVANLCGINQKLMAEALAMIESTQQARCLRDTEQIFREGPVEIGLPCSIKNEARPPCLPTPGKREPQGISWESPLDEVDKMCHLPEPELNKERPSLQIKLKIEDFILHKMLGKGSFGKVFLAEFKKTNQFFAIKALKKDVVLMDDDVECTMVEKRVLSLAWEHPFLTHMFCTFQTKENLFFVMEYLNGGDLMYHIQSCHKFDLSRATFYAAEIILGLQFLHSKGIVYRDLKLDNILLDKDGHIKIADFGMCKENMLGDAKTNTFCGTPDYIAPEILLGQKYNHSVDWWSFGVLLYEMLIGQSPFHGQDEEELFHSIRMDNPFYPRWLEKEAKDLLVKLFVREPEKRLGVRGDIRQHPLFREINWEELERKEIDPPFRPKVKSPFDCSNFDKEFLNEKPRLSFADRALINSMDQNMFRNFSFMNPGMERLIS

Sequence of ALK tyrosine kinase receptor (Q9UM73 whole entry): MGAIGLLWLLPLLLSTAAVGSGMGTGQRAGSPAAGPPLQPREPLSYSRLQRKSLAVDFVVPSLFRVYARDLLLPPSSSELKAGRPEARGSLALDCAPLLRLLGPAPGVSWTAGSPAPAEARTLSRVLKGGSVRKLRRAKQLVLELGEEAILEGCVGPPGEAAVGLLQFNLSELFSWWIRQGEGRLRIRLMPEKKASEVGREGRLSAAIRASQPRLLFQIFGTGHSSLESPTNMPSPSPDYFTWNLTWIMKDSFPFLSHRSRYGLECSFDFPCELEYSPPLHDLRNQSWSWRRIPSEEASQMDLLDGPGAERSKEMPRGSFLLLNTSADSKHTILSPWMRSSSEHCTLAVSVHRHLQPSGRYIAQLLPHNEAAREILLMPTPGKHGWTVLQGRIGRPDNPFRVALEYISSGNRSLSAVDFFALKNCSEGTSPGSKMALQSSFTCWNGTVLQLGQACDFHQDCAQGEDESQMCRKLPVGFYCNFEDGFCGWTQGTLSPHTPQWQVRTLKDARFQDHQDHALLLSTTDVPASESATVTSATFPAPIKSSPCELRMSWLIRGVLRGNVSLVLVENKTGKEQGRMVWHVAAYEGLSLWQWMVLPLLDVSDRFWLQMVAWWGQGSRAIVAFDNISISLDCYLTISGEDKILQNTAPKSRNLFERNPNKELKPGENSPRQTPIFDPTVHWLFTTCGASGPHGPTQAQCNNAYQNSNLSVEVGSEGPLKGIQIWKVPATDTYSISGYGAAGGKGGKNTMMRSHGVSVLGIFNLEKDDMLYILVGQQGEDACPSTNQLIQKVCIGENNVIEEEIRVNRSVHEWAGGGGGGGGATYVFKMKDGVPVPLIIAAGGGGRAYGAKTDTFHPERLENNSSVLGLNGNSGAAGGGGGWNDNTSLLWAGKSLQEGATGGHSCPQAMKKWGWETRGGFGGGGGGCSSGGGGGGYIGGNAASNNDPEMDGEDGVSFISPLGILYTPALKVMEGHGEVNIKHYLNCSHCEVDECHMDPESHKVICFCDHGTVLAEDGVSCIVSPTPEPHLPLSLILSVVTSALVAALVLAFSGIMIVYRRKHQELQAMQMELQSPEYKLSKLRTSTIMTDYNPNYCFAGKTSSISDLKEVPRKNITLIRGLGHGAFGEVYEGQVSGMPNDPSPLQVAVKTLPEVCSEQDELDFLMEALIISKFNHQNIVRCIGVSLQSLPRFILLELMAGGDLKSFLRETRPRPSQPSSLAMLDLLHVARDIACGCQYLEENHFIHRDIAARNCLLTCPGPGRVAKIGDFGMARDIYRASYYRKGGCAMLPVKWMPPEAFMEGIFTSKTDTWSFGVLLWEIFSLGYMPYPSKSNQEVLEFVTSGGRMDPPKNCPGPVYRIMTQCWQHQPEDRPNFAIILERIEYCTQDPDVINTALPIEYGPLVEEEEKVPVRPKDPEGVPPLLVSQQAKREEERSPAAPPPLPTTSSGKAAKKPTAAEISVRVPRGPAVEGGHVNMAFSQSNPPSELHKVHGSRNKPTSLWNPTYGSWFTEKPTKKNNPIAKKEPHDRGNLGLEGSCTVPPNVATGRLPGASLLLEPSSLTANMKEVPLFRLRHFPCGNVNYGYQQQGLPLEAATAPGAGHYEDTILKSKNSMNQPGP
Sequence of Death-associated protein kinase 3 (O43293 whole entry): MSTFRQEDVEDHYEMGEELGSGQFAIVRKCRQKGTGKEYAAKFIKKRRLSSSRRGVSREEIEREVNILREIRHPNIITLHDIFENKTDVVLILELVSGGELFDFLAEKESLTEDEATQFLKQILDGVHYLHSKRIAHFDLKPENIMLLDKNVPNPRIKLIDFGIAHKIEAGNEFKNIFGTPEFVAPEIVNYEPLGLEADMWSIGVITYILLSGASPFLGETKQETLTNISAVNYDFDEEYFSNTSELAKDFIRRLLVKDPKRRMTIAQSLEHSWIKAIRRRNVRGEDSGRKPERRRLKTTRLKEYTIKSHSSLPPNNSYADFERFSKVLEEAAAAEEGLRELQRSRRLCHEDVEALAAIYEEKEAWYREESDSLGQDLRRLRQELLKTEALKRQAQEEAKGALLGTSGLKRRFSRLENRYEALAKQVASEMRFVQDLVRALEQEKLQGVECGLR
Sequence of Dual specificity protein kinase CLK4 (Q9HAZ1 whole entry): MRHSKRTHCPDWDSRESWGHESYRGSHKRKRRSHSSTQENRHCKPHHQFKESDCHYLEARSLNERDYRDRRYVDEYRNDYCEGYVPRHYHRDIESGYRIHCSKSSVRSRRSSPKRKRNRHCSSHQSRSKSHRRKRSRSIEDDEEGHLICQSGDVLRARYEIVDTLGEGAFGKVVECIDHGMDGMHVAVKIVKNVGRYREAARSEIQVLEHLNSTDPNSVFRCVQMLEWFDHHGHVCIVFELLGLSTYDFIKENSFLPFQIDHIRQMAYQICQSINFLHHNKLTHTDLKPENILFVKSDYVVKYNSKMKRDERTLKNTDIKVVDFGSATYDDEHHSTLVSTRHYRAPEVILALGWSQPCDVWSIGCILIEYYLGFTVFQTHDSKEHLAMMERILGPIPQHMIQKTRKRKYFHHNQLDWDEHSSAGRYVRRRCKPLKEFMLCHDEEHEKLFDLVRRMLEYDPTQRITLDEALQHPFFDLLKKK
Sequence of Tyrosine-protein kinase Lck (P06239 whole entry): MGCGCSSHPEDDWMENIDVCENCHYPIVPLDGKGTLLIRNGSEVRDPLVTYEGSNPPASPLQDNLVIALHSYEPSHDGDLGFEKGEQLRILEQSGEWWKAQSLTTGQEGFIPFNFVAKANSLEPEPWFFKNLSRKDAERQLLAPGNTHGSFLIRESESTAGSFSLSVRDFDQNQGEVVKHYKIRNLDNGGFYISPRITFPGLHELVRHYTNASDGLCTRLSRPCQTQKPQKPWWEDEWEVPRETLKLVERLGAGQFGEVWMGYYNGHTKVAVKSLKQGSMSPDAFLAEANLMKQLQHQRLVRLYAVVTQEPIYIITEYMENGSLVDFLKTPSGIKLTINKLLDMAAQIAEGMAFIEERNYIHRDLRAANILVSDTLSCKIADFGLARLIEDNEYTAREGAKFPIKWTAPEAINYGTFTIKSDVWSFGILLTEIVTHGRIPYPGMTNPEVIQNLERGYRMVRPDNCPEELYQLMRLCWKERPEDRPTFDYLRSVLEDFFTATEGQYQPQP
Sequence of Cyclin-dependent kinase 19 (Q9BWU1 whole entry): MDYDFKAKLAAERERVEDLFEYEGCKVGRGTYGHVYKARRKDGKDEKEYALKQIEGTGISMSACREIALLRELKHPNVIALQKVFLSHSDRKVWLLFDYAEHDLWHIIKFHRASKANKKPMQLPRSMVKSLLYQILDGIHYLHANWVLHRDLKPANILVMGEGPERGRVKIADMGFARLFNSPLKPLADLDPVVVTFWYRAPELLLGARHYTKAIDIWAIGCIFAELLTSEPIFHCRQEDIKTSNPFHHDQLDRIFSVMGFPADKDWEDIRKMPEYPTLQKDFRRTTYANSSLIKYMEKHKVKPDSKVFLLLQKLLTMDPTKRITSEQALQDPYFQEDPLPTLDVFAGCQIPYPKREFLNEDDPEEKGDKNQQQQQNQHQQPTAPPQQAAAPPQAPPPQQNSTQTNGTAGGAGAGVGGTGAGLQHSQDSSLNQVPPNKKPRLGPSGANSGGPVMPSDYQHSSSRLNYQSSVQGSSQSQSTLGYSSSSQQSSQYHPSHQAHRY
Sequence of Activin receptor type-1 (Q04771 whole entry): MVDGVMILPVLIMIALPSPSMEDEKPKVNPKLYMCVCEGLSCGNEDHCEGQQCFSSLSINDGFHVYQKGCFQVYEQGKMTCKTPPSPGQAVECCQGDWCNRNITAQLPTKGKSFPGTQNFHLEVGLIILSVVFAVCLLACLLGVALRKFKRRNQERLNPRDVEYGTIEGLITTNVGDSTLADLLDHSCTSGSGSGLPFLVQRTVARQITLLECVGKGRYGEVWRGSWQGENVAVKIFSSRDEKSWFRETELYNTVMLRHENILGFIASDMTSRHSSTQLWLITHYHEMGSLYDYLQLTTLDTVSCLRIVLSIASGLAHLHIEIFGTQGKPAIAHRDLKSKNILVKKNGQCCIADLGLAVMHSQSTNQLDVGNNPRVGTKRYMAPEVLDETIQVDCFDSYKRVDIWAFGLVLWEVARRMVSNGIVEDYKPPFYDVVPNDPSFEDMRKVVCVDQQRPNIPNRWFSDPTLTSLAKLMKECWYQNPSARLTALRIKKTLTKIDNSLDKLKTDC

SMILES	IC50 [1]	Ki [2]	Ki [3]	Ki [4]	Ki [5]	Ki [6]	Ki [7]	Ki (Activin receptor type-1)	Ki [8]	Ki [9]
COc1cc2cc(NC(C)=O)cc(NCc3ccccc3)c2cc1OC	67.6 µM (active)	–	–	–	–	–	–	–	–	–
CN(C)c1cc(N/N=C\c2ccccc2)nc(N(C)C)n1	16.2 µM (active)	–	–	–	–	–	–	–	–	–
O=C1Nc2cc(-c3ccc(O)cc3)ccc2C1=Cc1ccc[nH]1	–	> 3.98 µM (inactive)	7.94 nM (active)	> 100 µM (inactive)	> 3.16 µM (inactive)	1 µM (active)	1.26 µM (active)	3.16 µM (active)	12.6 nM (active)	316 nM (active)
NC(COc1cncc(-c2ccc3c(c2)C(=Cc2ccc[nH]2)C(=O)N3)c1)Cc1ccccc1 (stereo unspecified)	–	0.0158 µM (active)	5.01 nM (active)	–	0.02 µM (active)	0.251 µM (active)	0.000316 µM (active)	0.794 µM (active)	200 nM (active)	3.98 nM (active)
O=C1Cc2cc(-c3ccccc3)cnc2N1	–	63.1 µM (active)	39800 nM (active)	> 100 µM (inactive)	100 µM (active)	–	6.31 µM (active)	–	63100 nM (active)	63100 nM (active)
